Results: ChEMBL document CHEMBL2396620, “Synthesis and biological evaluation of novel benzoxazinyl-oxazolidinones as potential antibacterial agents” (2013)
Converted amounts (≈) assume the structure as drawn.

Assays:
Assay type in all cases: functional
Enterococcus faecalis [1] = experiment: Antibacterial activity against Enterococcus faecalis assessed as growth inhibition after 16 hrs by agar dilution method
Streptococcus pneumoniae [2] = experiment: Antibacterial activity against penicillin-resistant Streptococcus pneumoniae assessed as growth inhibition after 16 hrs by agar dilution method
[3] = tested on: Staphylococcus epidermidis; experiment: Antibacterial activity against methicillin-resistant Staphylococcus epidermidis assessed as growth inhibition after 16 hrs by agar dilution method
[4] = tested on: Staphylococcus epidermidis; experiment: Antibacterial activity against methicillin-sensitive Staphylococcus epidermidis assessed as growth inhibition after 16 hrs by agar dilution method
Staphylococcus aureus [5] = experiment: Antibacterial activity against methicillin-resistant Staphylococcus aureus assessed as growth inhibition after 16 hrs by agar dilution method
Staphylococcus aureus [6] = experiment: Antibacterial activity against methicillin-sensitive Staphylococcus aureus assessed as growth inhibition after 16 hrs by agar dilution method
Enterococcus faecalis [7] = experiment: Ratio of linezolid MIC to compound MIC for Enterococcus faecalis
[8] = tested on: Staphylococcus epidermidis; experiment: Ratio of linezolid MIC to compound MIC for methicillin-sensitive Staphylococcus epidermidis
Staphylococcus aureus [9] = experiment: Ratio of linezolid MIC to compound MIC for methicillin-sensitive Staphylococcus aureus
Streptococcus pneumoniae [10] = experiment: Ratio of linezolid MIC to compound MIC for penicillin-resistant Streptococcus pneumoniae

SMILES | MIC (Enterococcus faecalis [1]) [µg/mL] | MIC (Streptococcus pneumoniae [2]) [µg/mL] | MIC [3] [µg/mL] | MIC [4] [µg/mL] | MIC (Staphylococcus aureus [5]) [µg/mL] | MIC (Staphylococcus aureus [6]) [µg/mL] | Ratio (Enterococcus faecalis [7]) | Ratio [8] | Ratio (Staphylococcus aureus [9]) | Ratio (Streptococcus pneumoniae [10])
O=C1O[C@@H](Cn2ccnn2)[C@@H]2COc3cc(-c4ccc(Cn5ccnn5)nc4)ccc3N12 | 4 (≈ 9.29 µM) | 2 (≈ 4.65 µM) | 1 (≈ 2.32 µM) | 1 (≈ 2.32 µM) | 1 (≈ 2.32 µM) | 2 (≈ 4.65 µM) | – | – | – | –
N#Cc1ccc(-c2ccc3c(c2)OC[C@H]2[C@H](C(N)=O)OC(=O)N32)cn1 | > 32 | > 32 | – | > 32 | – | > 32 | – | – | – | –
Cc1nc(-c2ccc(-c3ccc4c(c3)OC[C@H]3[C@H](C(N)=O)OC(=O)N43)cn2)no1 | > 32 | > 32 | – | > 32 | – | > 32 | – | – | – | –
NC(=O)[C@@H]1OC(=O)N2c3ccc(-c4ccc(-n5ccoc5=O)nc4)cc3OC[C@@H]12 | > 32 | > 32 | > 32 | > 32 | > 32 | > 32 | – | – | – | –
NC(=O)[C@@H]1OC(=O)N2c3ccc(-c4ccc(Cn5cncn5)nc4)cc3OC[C@@H]12 | > 32 | > 32 | > 32 | > 32 | > 32 | > 32 | – | – | – | –
CN1C[C@@H](c2ccc(-c3ccc4c(c3)OC[C@H]3[C@H](Cn5ccnn5)OC(=O)N43)cn2)OC1=O | 2 (≈ 4.46 µM) | 0.25 (≈ 0.557 µM) | 1 (≈ 2.23 µM) | 0.5 (≈ 1.11 µM) | 1 (≈ 2.23 µM) | 0.5 (≈ 1.11 µM) | – | – | – | –
O=C1O[C@@H](Cn2ccnn2)[C@@H]2COc3cc(-c4ccc(CO)nc4)ccc3N12 | 4 (≈ 10.5 µM) | 2 (≈ 5.27 µM) | 1 (≈ 2.64 µM) | 1 (≈ 2.64 µM) | 1 (≈ 2.64 µM) | 2 (≈ 5.27 µM) | – | – | – | –
CC(O)c1ccc(-c2ccc3c(c2)OC[C@H]2[C@H](Cn4ccnn4)OC(=O)N32)cn1 (some centres not stated) | 2 (≈ 5.08 µM) | 0.5 (≈ 1.27 µM) | 1 (≈ 2.54 µM) | 1 (≈ 2.54 µM) | 1 (≈ 2.54 µM) | 1 (≈ 2.54 µM) | – | – | – | –
CC(=O)c1ccc(-c2ccc3c(c2)OC[C@H]2[C@H](Cn4ccnn4)OC(=O)N32)cn1 | 2 (≈ 5.11 µM) | 0.25 (≈ 0.639 µM) | 1 (≈ 2.56 µM) | 0.5 (≈ 1.28 µM) | 0.5 (≈ 1.28 µM) | 0.5 (≈ 1.28 µM) | – | – | – | –
CCO/N=C(\C)c1ccc(-c2ccc3c(c2)OC[C@H]2[C@H](Cn4ccnn4)OC(=O)N32)cn1 | > 32 | > 32 | – | > 32 | – | > 32 | – | – | – | –
C/C(=N\OC(C)C)c1ccc(-c2ccc3c(c2)OC[C@H]2[C@H](Cn4ccnn4)OC(=O)N32)cn1 | > 32 | > 32 | – | > 32 | – | > 32 | – | – | – | –
O=C1O[C@@H](Cn2ccnn2)[C@@H]2COc3cc(-c4ccc(Cn5cncn5)nc4)ccc3N12 | 1 (≈ 2.32 µM) | 2 (≈ 4.65 µM) | 0.5 (≈ 1.16 µM) | 0.5 (≈ 1.16 µM) | 0.5 (≈ 1.16 µM) | 0.5 (≈ 1.16 µM) | 2 | 2 | 2 | –
O=C1O[C@@H](Cn2ccnn2)[C@@H]2COc3cc(-c4ccc(Cn5ncnn5)nc4)ccc3N12 | 2 (≈ 4.64 µM) | 2 (≈ 4.64 µM) | 1 (≈ 2.32 µM) | 0.5 (≈ 1.16 µM) | 1 (≈ 2.32 µM) | 1 (≈ 2.32 µM) | – | – | – | –
O=C1O[C@@H](Cn2ccnn2)[C@@H]2COc3cc(-c4ccc(Cn5cnnn5)nc4)ccc3N12 | 4 (≈ 9.27 µM) | 4 (≈ 9.27 µM) | 1 (≈ 2.32 µM) | 1 (≈ 2.32 µM) | 2 (≈ 4.64 µM) | 2 (≈ 4.64 µM) | – | – | – | –
N#Cc1ccc(-c2ccc3c(c2)OC[C@H]2[C@H](Cn4ccnn4)OC(=O)N32)cn1 | 1 (≈ 2.67 µM) | 0.25 (≈ 0.668 µM) | 0.25 (≈ 0.668 µM) | 0.25 (≈ 0.668 µM) | 0.25 (≈ 0.668 µM) | 0.25 (≈ 0.668 µM) | 4 | 4 | 4 | 4
Cn1nnnc1-c1ccc(-c2ccc3c(c2)OC[C@H]2[C@H](Cn4ccnn4)OC(=O)N32)cn1 | 4 (≈ 9.27 µM) | 2 (≈ 4.64 µM) | 1 (≈ 2.32 µM) | 1 (≈ 2.32 µM) | 1 (≈ 2.32 µM) | 2 (≈ 4.64 µM) | – | – | – | –
Cn1nnc(-c2ccc(-c3ccc4c(c3)OC[C@H]3[C@H](Cn5ccnn5)OC(=O)N43)cn2)n1 | 4 (≈ 9.27 µM) | 1 (≈ 2.32 µM) | 2 (≈ 4.64 µM) | 1 (≈ 2.32 µM) | 2 (≈ 4.64 µM) | 2 (≈ 4.64 µM) | – | – | – | –
Cc1nc(-c2ccc(-c3ccc4c(c3)OC[C@H]3[C@H](Cn5ccnn5)OC(=O)N43)cn2)no1 | 8 (≈ 18.5 µM) | 1 (≈ 2.32 µM) | 4 (≈ 9.27 µM) | 2 (≈ 4.64 µM) | 2 (≈ 4.64 µM) | 2 (≈ 4.64 µM) | – | – | – | –
O=C1O[C@@H](Cn2ccnn2)[C@@H]2COc3cc(-c4ccc(-n5cc(CO)oc5=O)nc4)ccc3N12 | 1 (≈ 2.16 µM) | 0.5 (≈ 1.08 µM) | 1 (≈ 2.16 µM) | 0.5 (≈ 1.08 µM) | 1 (≈ 2.16 µM) | 0.5 (≈ 1.08 µM) | – | – | – | –
CC(=O)NC[C@H]1CN(c2ccc(N3CCOCC3)c(F)c2)C(=O)O1 [LINEZOLID] | – | – | 1 (≈ 2.96 µM) | 1 (≈ 2.96 µM) | 1 (≈ 2.96 µM) | 1 (≈ 2.96 µM) | – | – | – | –
